Test results taken from US6784155B1, “Inhibitor and stimulator of stem cell proliferation and uses thereof” (Wellstat Therapeutics Corporation, priority 1996, dated 2004).
No end group written: not given here.

Key:
CFU-MIX [1] = experiment: CFU-MIX cycling assay in vitro (Ara C kill); format: cell-based, mouse
Procedure, shortened: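 Balb/c mice dosed i.v. with peptide 43-55 or vehicle; bone marrow harvested next day, cells (5×10^6/ml) held 3 h at 37° C ± test substance, then 1 h ± Ara C 30 μg/ml. CFU-MIX colonies counted after 7 days in methylcellulose; fraction cycling from colony loss with Ara C versus medium.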

CFU-MIX [2] = experiment: CFU-MIX cycling assay after in vivo injection into testosterone or 5FU treated mice; parameters: species or system mouse
Method: In order to test the ability of purified porcine hemoglobin chains to act in vivo, BDF1 mice were injected with testosterone propionate as described in Example 1. Twenty four hours later, mice received 500 ng of either pINPROL, porcine hemoglobin alpha chain (purified from peripheral red blood cells as in FIG. 21), porcine beta chain (purified from peripheral red blood cells as in FIG. 21) or the equivalent volume of carrier intravenously. Forty eight hours later the bone marrow from each mouse was harvested and the CFU-MIX assay conducted as described in Example 14.
To assess the stem cell inhibitory activity of peptide 43-55 in vivo, B6D2 F1 mice were pre-treated with testosterone propionate as described in Example 1 or with 5FU. Specifically, testosterone propionate (100 mg/kg body weight) was injected i.p. on Day 0 into mice. Alternatively, mice were injected on Day 0 with 5FU ([…] body weight).
24 hours later (Day 1), varying doses of peptide 43-55 or vehicle were injected i.v. Bone marrow was harvested on Day 2 and the […] cycling assay conducted as in Example 14. Specifically, mice were sacrificed and single cell bone marrow suspensions prepared from the femurs. The cells were washed once and the concentration adjusted to 5×10^6 cells/ml in Fischer medium. For each test condition, one milliliter of cells was added to each of two polypropylene tubes. The tubes were incubated at 37° C. for 3 hours without (“Control”) or with (“Experimental”) the appropriate concentration of test substance. At the end of the incubation, 30 μg/ml of cytosine arabinoside (“Ara C” (Sigma)) was added to half of the tubes and the same volume of Fischer's medium was added to the others. The tubes were incubated for a further 1 hour at 37° C., after which they were placed on ice and washed twice with cold Fischer medium.
The cells were readjusted to 5×10^4-10^6/ml in Fischer's medium and 0.5 ml of cell suspension added to 5 ml of Methocult M3430 methylcellulose medium (Stem Cell Technologies, Vancouver, British Columbia). The mixture was vigorously mixed with a vortex and 1 ml was dispensed into each of five 35 mm dishes. The 35 mm dishes were in turn placed in a covered 150 mm dish with one open 35 mm dish containing sterile water. CFU-MIX colonies were counted with the use of an inverted microscope after 7 days of incubation at 37° C.
Differences in colony number between the tubes treated with medium versus the tubes treated with Ara C represent the percentage of cells in cycle under that condition according to the formula: […]

CFU-GEMM [3] = experiment: CFU-GEMM cycling assay, human umbilical cord blood cells; format: cell-based
Method: In order to investigate the ability of purified INPROL from porcine bone marrow to affect cycling on human progenitors, umbilical cord blood cells were obtained. Either the total mononuclear cell fraction obtained after separation on Ficoll or the CD34^+ fraction obtained after fractionation on anti-CD34 affinity columns (CellPro Inc.) was used. Cells were incubated for 48 hours in vitro in the presence of interleukin 3 (IL-3) and stem cell factor (SCF) (100 ng/ml each) in order to ensure that the early stem cells were in cycle. After this preincubation, cycling assays were conducted as described in Example 14 for the mouse except that CFU-GEMM (instead of CFU-MIX) were counted on Day 18 after plating.
The human cord blood CFU-GEMM cycling assay was conducted as in Example 19. Specifically, mononuclear cells were isolated from human umbilical cord blood cells and adjusted to 24×10^4 cells/ml in IMDM tissue culture medium supplemented with 10% FBS, 100 ng/ml kit ligand and 100 ng/ml human IL-3. The cells were incubated for 48 hours at 37° C.
After incubation, cells were washed and resuspended in serun-free NDM at a concentration of 10^6 cells/ml. One ml of cells was added to each of two polypropylene tubes per condition and the cycling assay conducted as in Example 24 for mouse bone marrow. After the Ara C incubation cells were washed with cold NDM and adjusted to 10,000 to 20,000 cells per 0.5 ml IMDM and mixed with 5 ml Methocult H4433 (Stem Cell Technologies). Alternatively, Methocult H4435 methylcellulose medium (Stem Cell Technologies) was used in which case the cell concentration was adjusted to 2500-5000 cells per 0.5 ml IMDM. The cells were plated as in Example 24 and CFU-GEMM colonies scored on days 14-18.

CFU-GEMM [4] = experiment: CFU-GEMM cycling assay, human bone marrow cells; format: cell-based
Method: To assess the bioactivity of recombinant p1-97, the CFU-GEMM cycling assay was used as in Example 18:
CD34^+ stem cells were obtained from Poietic Technologies (Gaithersburg, MD) after purification from human bone marrow by means of a CelUPro column. Cells were incubated for 48 hours with kit ligand and IL-3 and used in a CFU-GEMM cycling assay in Example 26.

CFU-GEMM [5] = experiment: CFU-GEMM cycling assay, mobilized human peripheral blood; format: cell-based
Method: Peripheral blood was obtained from breast cancer patients undergoing peripheral stem cell mobilization with cyclophosphamide and G-CSF according to standard protocols. Red blood cells were removed with FicolU Hypaque (cells were diluted 1:1 with IMDM and 20 ml layered on top of 16 ml Ficoll and centrifuged at 800 g for 30 minutes; mononuclear cells were removed from the interphase and washed twice in IMDM). In one case mononuclear cells were stored frozen in liquid nitrogen before assay. The mononuclear cells were plated for the CFU-GEMM cycling assay as in Example 26 except that 2.5-5×10^5 cells were plated per dish.

[6] = Table 32, cord blood mononuclear cells, 100 ng/ml
[7] = Table 33, CD34+ stem cells from human bone marrow, concentration printed only as (ng/ml)

Human alpha chain: purified, non-recombinant human alpha hemoglobin chain isolated by reversed-phase HPLC
% Kill (CFU-MIX [1]; Table 11, bone marrow from Balb/c mice, 100 ng/ml): −1%
% Kill (CFU-MIX [1]; Table 13, bone marrow from Balb/c mice, 100 ng/ml): 19%
% Kill (CFU-MIX [1]; Table 20, Balb/c bone marrow, 100 ng/ml): 12%
% Kill (CFU-MIX [1]; Table 25, Balb/c bone marrow, 100 ng/ml): 0%
% Kill (CFU-MIX [1]; Table 28, 100 ng/ml, alone): 0%
% Kill (CFU-MIX [1]; Table 30, 100 ng/ml): 0%
% Kill (CFU-MIX [1]; Table 31, 100 ng/ml, alone): 0%
% Kill (CFU-MIX [2]; Table 14, testosterone-treated BDF1 mice, 500 ng/mouse): −22%
% Kill (CFU-MIX [2]; Table 22, testosterone-pretreated animals, 500 ng i.v. per 20 gram mouse): 13%
% Kill (CFU-MIX [2]; Table 23, 5FU-pretreated animals, 500 ng i.v. per 20 gram mouse): 0%
% Kill (CFU-GEMM [3]; Table 16, cord blood mononuclear cells, 100 ng/ml): −23%
% Kill (CFU-GEMM [3]; [6]): 0%
% Kill (CFU-GEMM [4]; Table 21, human bone marrow mononuclear cells, 100 ng/ml): 11%
% Kill (CFU-GEMM [4]; [7]): 0%
% Kill (CFU-GEMM [5]; Table 34, Patient #1, 100 ng/ml): 0%
% Kill (CFU-GEMM [5]; Table 35, Patient #2, concentration printed only as (ng/ml)): 2%

FPHFDLSHGSAQV [Peptide 43-55, amino acids 43-55 of human alpha hemoglobin]
% Kill (CFU-MIX [1]; Table 17, 1 ng/ml): 11%
% Kill (CFU-MIX [1]; Table 17, 10 ng/ml): 18%
% Kill (CFU-MIX [1]; Table 17, 100 ng/ml): 2%
% Kill (CFU-MIX [1]; Table 18, 100 ng/ml): 5%
% Kill (CFU-MIX [1]; Table 24, 1 ng/ml): 8%
% Kill (CFU-MIX [1]; Table 27, Balb/c bone marrow, 1 ng/ml): 8%
% Kill (CFU-MIX [1]; Table 28, 10 ng/ml, alone): 6%
% Kill (CFU-MIX [1]; Table 31, 10 ng/ml, alone): 8%
% Kill (CFU-MIX [2]; Table 22, testosterone-pretreated animals, 0.5 ng i.v. per 20 gram mouse): 0%
% Kill (CFU-MIX [2]; Table 23, 5FU-pretreated animals, 0.5 ng i.v. per 20 gram mouse): 3%
% Kill (CFU-GEMM [3]; Table 32, cord blood mononuclear cells, 1 ng/ml): 20%
% Kill (CFU-GEMM [3]; Table 32, cord blood mononuclear cells, 10 ng): 12%
% Kill (CFU-GEMM [3]; [6]): 5%
% Kill (CFU-GEMM [4]; [7]): 0%
% Kill (CFU-GEMM [5]; Table 35, Patient #2, 10 ng/ml): 0%
% Kill (CFU-GEMM [5]; Table 36, Patient #3, cells stored frozen before assay, 0.1 ng/ml): 23%
% Kill (CFU-GEMM [5]; Table 36, Patient #3, cells stored frozen before assay, 1.0 ng/ml): 0%
% Kill (CFU-GEMM [5]; Table 36, Patient #3, cells stored frozen before assay, 10 ng/ml): 15%
